Reference: US20250154201A1, “PEPTIDE BINDING TO MESOTHELIN, AND USE THEREOF” (KYUNGPOOK NATIONAL UNIVERSITY INDUSTRY-ACADEMIC COOPERATION …, priority 2022, published 2025)

Tests used:
Assay type in all cases: cell-based, human
[1] = tested on: PANC-1 and AsPC-1 cell lines; assay: analysis of invasion (Matrigel-coated 24-transwell); conditions: 24 hours
Protocol: PANC-1 and AsPC-1 cell lines were cultured using DMEM and RPMI-1640 media with 10% FBS added in 100 mm dish each at a concentration of 2×10^6 cells per well. After 24 hours, all media in 100 mm dishes were removed and replaced with DMEM and RPMI-1640 media without addition of 10% FBS to inhibit migratability of cell lines so as to be in a starvation state. After 24 hours, 300 μg/mL of Matrigel was coated on the upper chamber of 24-Transwell. Afterwards, PANC-1 and AsPC-1 cell lines were cultured in the upper chamber at a concentration of 2×10^4 cells in a 100 mm dish, 10% FBS was added to the lower chamber for the experimental group, and 0% FBS was added to the lower chamber for the control group to identify migratability. 3% ACN, 200 μM control peptide (Ctrl-pep), MSLN-pep 25. For 50, 100, and 200 μM groups, each cell line was cultured together in the upper chamber of the 24-Transwell, and 10% FBS was treated in the lower chamber. Each group was cultured at 37° C. for 24 hours, and then the cells were photographed (original magnification, ×100) for each concentration of peptides. Cells were stained with crystal violet (0.1%), and Image J, a computer program, was used for quantitative evaluation.
(§1) After pancreatic cancer cell lines PANC-1 and AsPC-1 were cultured in 24-transwells, all cells were starved for 24 hours to inhibit cell growth, and then treatment was performed in divided groups of 10% FBS, 0% FBS, 3% ACN+10% FBS, 200 μM NSSSVDK+10% FBS, 25 μM MSLN-pep+10% FBS, 50 μM MSLN-pep+10% FBS, 100 μM MSLN-pep+10% FBS, and 200 μM MSLN-pep+10% FBS.

[2] = tested on: PANC-1 and AsPC-1 cell lines; assay: analysis of migration (24-transwell); conditions: 24 hours
Protocol: PANC-1 and AsPC-1 cell lines were cultured using DMEM and RPMI-1640 media with 10% FBS added respectively in the upper chamber of 24-transwell at a concentration of 2×10^4 cells per well. After 24 hours, all the media in the upper chamber of 24-transwells were removed and replaced with DMEM and RPMI-1640 media without addition of 10% FBS to inhibit migratability of cell lines, so as to be in a starvation state. After 24 hours, the experimental group was added with 10% FBS in the lower chamber, and the control was added with 0% FBS in the lower chamber to observe migratability. 3% ACN, 200 μM control peptide (Ctrl-pep), MSLN-pep 25. For 50, 100, and 200 μM groups, the media in the upper chamber of 24-Transwell were removed, each drug was treated by concentration, and 10% FBS was treated in the lower chamber. Each group was cultured at 37° C. for 24 hours, and then the cells were photographed (original magnification, ×100) by concentration of each peptide. Cells were stained with crystal violet (0.1%), and the ImageJ, a computer program, was used for quantitative evaluation.
as §1

[3] = tested on: pancreatic cancer cell lines PANC-1 and AsPC-1; assay: internalization of FITC-labeled peptides (confocal microscopy); conditions: 25 μM and 50 μM MSLN-pep, 50 uM NSSSVDK; 1 and 2 hours
Protocol: To observe the intracellular distribution of the internalized FITC-labeled peptide MSLN-pep, pancreatic cancer cell lines AsPC-1 and PANC-1 cells (2.5×10^5 cell counts) were dispensed on a 4-well chamber slide. After complete adhesion, the cell culture medium was replaced with a fresh medium containing FITC-labeled peptides (25 μM, 50 μM), […], and the cells were washed with PBS 3 times for 3˜5 minutes, followed by fixation (4% paraformaldehyde; PFA) for 5 minutes. Thereafter, washing with PBS was performed. After staining the nucleus with DAPI and mounting on a glass slide with a fading reagent, internalization of FITC-labeled MSLN-pep was observed under confocal microscopy.

[4] = tested on: AsPC-1 cells expressing mesothelin; assay: binding to AsPC-1 cells after mesothelin siRNA (confocal immunofluorescence and flow cytometry); conditions: for specific binding (flow cytometry): 25 μM MSLN-pep
Protocol: Mesothelin-specific siRNA (M-siRNA) and negative control siRNA (C-siRNA) were purchased from Bioneer and transfected with Lipofectamine RNAiMAX transfection reagent (Invitrogen) into AsPC-1, a pancreatic cancer cell line. After 24 hours of transfection, the media were replaced with a medium containing serum, followed by culture for an additional 24 hours.
After AsPC-1 cells were cultured for 24 hours, for suppression of mesothelin expression, transfection followed with C-siRNA, a non-specific siRNA, as well as M-siRNA, a mesothelin-specific siRNA. To detect the silencing of the mesothelin gene, the group was divided into one without treatment of siRNA, one with treatment of 100 nM C-siRNA, and one with treatment of 100 nM and 200 nM M-siRNA. Mesothelin antibody and MSLN-pep were then treated by 10 μM and 25 μM, respectively. Further, the results were identified by means of confocal microscopy via immunofluorescence analysis (FIG. 6A). […] Flow cytometry was performed to determine the expression level of mesothelin when siRNA was not treated to AsPC-1 cells and the expression level of mesothelin after C-siRNA and M-siRNA were treated, of which values were expressed in % binding with the mesothelin antibody and the mean fluorescence intensity (MFI). […] As a result of performing flow cytometry to determine the difference between the binding of 25 μM MSLN-pep when siRNA was not treated to AsPC-1 cells expressing mesothelin and the binding of 25 μM MSLN-pep after treating with C-siRNA and M-siRNA, when treated with no siRNA or treated with 100 nM C-siRNA, the specific binding of 25 μM MSLN-pep was approximately 78%, and when treated with 100 nM and 200 nM M-siRNA, it was approximately 15%. This series of results reveal the degree of mesothelin expression and the reduction of mesothelin expression when M-siRNA is treated. […] In brief, it was determined that MSLN-pep specifically binds to cells expressing mesothelin.

CC[C@H](C)[C@@H]1NC(=O)[C@H]([C@@H](C)O)NC(=O)[C@@H](N)CSSC[C@@H](C(=O)O)NC(=O)[C@H]([C@@H](C)O)NC(=O)[C@H](CC(C)C)NC(=O)[C@H](CO)NC(=O)[C@H](Cc2c[nH]c3ccccc23)NC(=O)[C@H](CC(C)C)NC1=O [MSLN-pep]
invasiveness compared to treatment of 10% FBS ([1]; 25 μM + 10% FBS): no difference in the migratability and invasiveness
invasiveness ([1]; 50, 100 and 200 μM + 10% FBS): suppressed with increasing concentrations of MSLN-pep
migratability compared to treatment of 10% FBS ([2]; 25 μM + 10% FBS): no difference in the migratability and invasiveness
migratability ([2]; 50, 100 and 200 μM + 10% FBS): suppressed with increasing concentrations of MSLN-pep
binding and internalization into cells [3]: internalization into cells occurs in proportion to the increase in the concentration
specific binding (flow cytometry) ([4]; 100 nM and 200 nM M-siRNA): approximately 15%
specific binding (flow cytometry) ([4]; no siRNA or 100 nM C-siRNA): approximately 78%
specific binding to mesothelin (confocal immunofluorescence) ([4]; 25 μM compared to 10 μM): higher specific binding to mesothelin
specific binding (confocal immunofluorescence) ([4]; M-siRNA 100 nM and 200 nM): decreased with the decrease of mesothelin expression
